US11246961B2, “Engineered scaffolds for vascularized tissue repair” (The Regents of the University of California, priority 2016, dated 2022)
Ends that are not written are not given here.

Assays:
[1] = tested on: HCAECs; assay: attachment assay on ligand treated culture surfaces, HCAECs; assay type: cell-based, human; conditions: avidin + biotinylated ligand 2 μM; 10 minutes
Text: Ligands LXW7, LXY30, and LLP2A were synthesized as in U.S. Pat. No. 9,073,974. Biotinylated LXW7 (LXW7-bio) and biotinylated GRGD (GRGD-bio) (SEQ ID NO: 1) were synthesized using established solid phase peptide synthesis protocols (Xiao et al. (2010) Mol Cancer Therapeutics 9:2714). Peptide-bio was designed to have biotin attached to the side chain of Lys, with two hydrophilic linkers between peptide and Lys (biotin). To modify culture surface with ligands, target culture wells in a 24-well plate were coated with 500 μL of 20 μg/mL Avidin (Thermo Fisher Scientific), and incubated for 1 hour at 37° C. Avidin coated wells were rinsed three times with DPBS and were treated with 500 μL molar equivalents (2 μM) of D-biotin (Thermo Fisher Scientific), LXW7-bio, or GRGD-bio (SEQ ID NO: 1). After 1 hour, the wells were washed three times with DPBS and blocked with 1% bovine serum albumin (BSA; Thermo Fisher Scientific) for 1 hour. After the wells were rinsed three times with DPBS, for cell attachment assay, 5×10^4 HCAECs and THP-1 monocytes suspended in the respective maintenance medium were added to the wells and incubated for 10 minutes or 16 hours at 37° C., 5% CO2, respectively. After each time point the wells were washed three times with DPBS, and the adhered cells were fixed in 10% formalin (Azer Scientific) for 20 minutes. For platelets attachment assay, the PRP was centrifuged, and the platelet pellet was resuspended in 1% BSA with 2 mM CaCl2 and 1 mM MgCl2 to achieve a final concentration of 1×10^8 platelets/mL, added to the wells at a density of 5×10^7 platelets/cm^2, and incubated for 16 hours at 37° C., 5% CO2. The wells were washed three times with DPBS, and the adhered cells were fixed in 10% formalin for 20 min. The HCAECs wells were washed with DPBS again and blocked for 1 hour with 1% BSA. An additional wash was performed, and the plate was incubated overnight with mouse anti-PECAM-1 antibody (1:100; Abcam) in 1% BSA at 4° C. […] Five images were randomly taken from each sample and quantification of images was performed using the Image J software (NIH).

[2] = tested on: THP-1 monocytes; assay: attachment assay on ligand treated culture surfaces, THP-1 monocytes; assay type: cell-based; conditions: 16 hours
Text: (§1) Ligands LXW7, LXY30, and LLP2A were synthesized as in U.S. Pat. No. 9,073,974. Biotinylated LXW7 (LXW7-bio) and biotinylated GRGD (GRGD-bio) (SEQ ID NO: 1) were synthesized using established solid phase peptide synthesis protocols (Xiao et al. (2010) Mol Cancer Therapeutics 9:2714). Peptide-bio was designed to have biotin attached to the side chain of Lys, with two hydrophilic linkers between peptide and Lys (biotin). To modify culture surface with ligands, target culture wells in a 24-well plate were coated with 500 μL of 20 μg/mL Avidin (Thermo Fisher Scientific), and incubated for 1 hour at 37° C. Avidin coated wells were rinsed three times with DPBS and were treated with 500 μL molar equivalents (2 μM) of D-biotin (Thermo Fisher Scientific), LXW7-bio, or GRGD-bio (SEQ ID NO: 1). After 1 hour, the wells were washed three times with DPBS and blocked with 1% bovine serum albumin (BSA; Thermo Fisher Scientific) for 1 hour. After the wells were rinsed three times with DPBS, for cell attachment assay, 5×10^4 HCAECs and THP-1 monocytes suspended in the respective maintenance medium were added to the wells and incubated for 10 minutes or 16 hours at 37° C., 5% CO2, respectively. […] Five images were randomly taken from each sample and quantification of images was performed using the Image J software (NIH).

[3] = molecular target: T1, integrin αvβ3 (Homo sapiens, UniProt P05106+P06756); assay: flow cytometry ligand-cell binding, αvβ3-K562 cells; conditions: K562 cells highly expressing integrin αvβ3
T1 construct: expressed in transfected cells; host or cells: K562 myeloid leukemia cells (αvβ3-K562), provided by Dr. Yoshikazu Takada
T1 sequence (P06756 31-889 limits assumed): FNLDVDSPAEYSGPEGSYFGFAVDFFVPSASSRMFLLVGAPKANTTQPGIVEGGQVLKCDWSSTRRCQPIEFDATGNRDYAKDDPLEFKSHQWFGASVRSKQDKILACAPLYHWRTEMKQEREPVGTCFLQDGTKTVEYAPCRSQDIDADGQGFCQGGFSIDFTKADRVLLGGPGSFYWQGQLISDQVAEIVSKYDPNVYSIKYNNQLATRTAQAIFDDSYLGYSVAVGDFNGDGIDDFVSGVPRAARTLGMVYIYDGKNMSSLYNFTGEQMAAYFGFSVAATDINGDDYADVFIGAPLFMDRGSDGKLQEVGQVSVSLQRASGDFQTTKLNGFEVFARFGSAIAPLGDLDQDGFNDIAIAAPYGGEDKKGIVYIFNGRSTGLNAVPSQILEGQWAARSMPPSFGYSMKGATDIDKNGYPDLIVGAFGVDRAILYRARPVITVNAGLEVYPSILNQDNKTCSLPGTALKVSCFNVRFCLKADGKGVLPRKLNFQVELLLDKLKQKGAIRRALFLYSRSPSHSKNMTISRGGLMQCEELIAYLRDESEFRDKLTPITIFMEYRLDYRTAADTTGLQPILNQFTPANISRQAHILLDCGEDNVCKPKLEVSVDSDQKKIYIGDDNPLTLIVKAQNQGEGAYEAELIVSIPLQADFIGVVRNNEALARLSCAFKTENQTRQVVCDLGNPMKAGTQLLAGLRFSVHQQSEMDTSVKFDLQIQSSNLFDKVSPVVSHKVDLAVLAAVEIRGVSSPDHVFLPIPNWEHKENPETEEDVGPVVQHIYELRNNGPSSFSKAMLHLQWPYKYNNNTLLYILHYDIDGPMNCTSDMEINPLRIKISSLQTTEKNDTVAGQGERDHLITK
T1 sequence (P06756 891-1048 partner limits assumed): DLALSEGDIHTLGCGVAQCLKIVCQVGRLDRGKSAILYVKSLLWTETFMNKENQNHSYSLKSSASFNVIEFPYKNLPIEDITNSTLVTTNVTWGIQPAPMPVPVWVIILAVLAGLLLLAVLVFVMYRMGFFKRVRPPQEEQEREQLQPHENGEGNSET
T1 sequence (P05106 27-788): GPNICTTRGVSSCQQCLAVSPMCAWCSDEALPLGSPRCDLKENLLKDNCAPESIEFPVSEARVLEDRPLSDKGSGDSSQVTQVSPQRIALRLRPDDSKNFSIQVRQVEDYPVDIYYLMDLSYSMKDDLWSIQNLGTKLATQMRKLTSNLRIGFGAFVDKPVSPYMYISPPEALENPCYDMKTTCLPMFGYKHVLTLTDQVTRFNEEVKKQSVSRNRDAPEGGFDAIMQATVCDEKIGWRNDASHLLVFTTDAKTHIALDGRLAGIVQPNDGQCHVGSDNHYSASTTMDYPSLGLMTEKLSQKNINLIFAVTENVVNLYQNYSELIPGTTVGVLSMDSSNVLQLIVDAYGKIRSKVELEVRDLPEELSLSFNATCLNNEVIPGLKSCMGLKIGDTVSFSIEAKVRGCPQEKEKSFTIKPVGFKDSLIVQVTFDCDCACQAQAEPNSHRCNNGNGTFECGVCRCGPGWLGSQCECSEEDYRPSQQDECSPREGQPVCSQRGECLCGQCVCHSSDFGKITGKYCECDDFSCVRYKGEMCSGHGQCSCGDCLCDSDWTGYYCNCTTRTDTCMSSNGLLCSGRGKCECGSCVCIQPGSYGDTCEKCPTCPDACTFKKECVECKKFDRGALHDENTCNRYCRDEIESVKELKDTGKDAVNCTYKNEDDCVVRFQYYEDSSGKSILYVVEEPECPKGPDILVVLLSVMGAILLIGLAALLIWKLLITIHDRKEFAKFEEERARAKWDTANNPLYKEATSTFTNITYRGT
Protocol: (§2) FIG. 10 presents flow cytometry data from an assay of binding affinity of LXW7 and GRGD (SEQ ID NO: 1) to different cell types. Tests included EPCs/ECs from different sources, including HECFCs (A), HCAECs (B), HMVECs (C), and THP-1 monocytes (D), Platelets (E), as well as K562 cells engineered to highly express αvβ3 (αvβ3-K562, F), and αIIbβ3 (αIIbβ3-K562, G). Cells were incubated with the LXW7-bio, GRGD-bio (SEQ ID NO: 1), or D-Biotin peptide and subsequently incubated with streptavidin-phycoerythrin. Flow cytometry analysis was performed to determine the binding affinity of the ligands. Samples treated with D-biotin were used as negative controls.
(§3) Human coronary artery endothelial cells (HCAECs) were purchased from ATCC. Human cardiac microvascular endothelial cells (HMVECs) were purchased from Lonza. THP-1 monocytes were obtained from Dr. Pamela Lein (University of California, Davis). […]
(§4) LXW7-bio (1 μM) was incubated with 3×10^5 HECFCs, HCAECs, HMVECs, αvβ3-K562 and αIIbβ3-K562 cells and THP-1 monocytes and 1×10^8 platelets in binding buffer (HEPES containing 10% FBS) on ice for 30 minutes. […] Samples were analyzed on a BD Fortessa LSR Cell Analyzer and further data analysis and gating were performed using FlowJo software (Treestar, Inc.).

[4] = tested on: platelets; assay: platelets attachment assay on ligand treated culture surfaces; assay type: cell-based; conditions: 16 hours
Text: as §1

[5] = tested on: platelets; assay: flow cytometry ligand-cell binding, platelets; conditions: biotinylated ligand 1 μM
Protocol: as §2
(§5) LXW7-bio (1 μM) was incubated with 3×10^5 HECFCs, HCAECs, HMVECs, αvβ3-K562 and αIIbβ3-K562 cells and THP-1 monocytes and 1×10^8 platelets in binding buffer (HEPES containing 10% FBS) on ice for 30 minutes. The samples were washed three times with DPBS containing 1% FBS and incubated with 2 μg/ml of streptavidin-phycoerythrin on ice for 30 minutes and then washed with DPBS. Samples were analyzed on a BD Fortessa LSR Cell Analyzer and further data analysis and gating were performed using FlowJo software (Treestar, Inc.).

[6] = molecular target: T2, integrin αIIbβ3 (Homo sapiens, UniProt P05106+P08514); assay: flow cytometry ligand-cell binding, αIIbβ3-K562 cells; conditions: K562 cells highly expressing αIIbβ3
T2 construct: expressed in transfected cells; host or cells: K562 myeloid leukemia cells (αIIbβ3-K562), provided by Dr. Jennifer Cochran (Stanford University)
Protocol: as §2, §3, §4

[7] = tested on: THP-1 monocytes; assay: flow cytometry ligand-cell binding, THP-1 monocytes; conditions: biotinylated ligand 1 μM
Protocol: as §2, §5

[8] = tested on: HECFCs; assay: on-bead whole cell binding assay, HECFCs; assay type: cell-based, human; conditions: 2 hours incubation
Text: Endothelial colony forming cells (ECFCs), a subtype of EPCs also often referred to as outgrowth endothelial cells (OECs), were isolated from human umbilical cord blood as previously described (Williams et al. (2015) PloS One 10:e0123437; Ingram et al. (2004) Blood 104:2752). Human umbilical cord blood (10 U heparin/mL blood) was obtained from the UC Davis Umbilical Cord Blood Collection Program (UCBCP) and diluted 1:1 with Phosphate-buffered saline (PBS), without calcium and magnesium, pH 7.2 (Hyclone). Fifteen mL Ficoll-Paque PLUS (Amersham Biosciences) was laid at the bottom of 20 mL diluted blood and centrifuged at 2000 rpm for 30 minutes at room temperature. The hazy layer of mononuclear cells (MNCs) that seat at the interface between the Ficoll and serum was collected and dispensed into 50-mL conical tube containing 10 mL EBM-2 (Lonza) and centrifuged at 1500 rpm for 10 minutes at room temperature. The supernatant was carefully aspirated and the pellets were treated with red blood cell lysis buffer (eBioscience, Inc.) and then sorted by CD34 microbead magnetic sorting (Miltenyi Biotec GmbH) as per manufacturer's instructions. The CD34^+ cells were seeded on rat-tail collagen I (BD Biosciences Discovery) coated tissue culture plates and cultured in EGM-2 media (Lonza). After 24 h, non-adherent cells were removed and the media was changed daily to day 7 and every other day thereafter. ECFC-derived colonies appeared between day 4 and day 7 of culture with s typical endothelial cobblestone pattern. Individual colonies were isolated and expanded and allowed to grow to 80% to 90% confluency before first passage. ECFCs were used between P3 and P5 for all experiments.
HECFCs, HCAECs, HMVECs and THP-1 monocytes were cultured in their respective growth medium as described in Example 1. For cell bead-binding assay, 6×10^5 HECFCs, HCAECs, HMVECs or THP-1 monocytes in 2 mL of their respective culture medium were added to an ultra-low attachment 35-mm petri dish (Corning Incorporated) followed by resin beads (Lam et al. (1991) Nature 354:82). […]

[9] = tested on: HCAECs; assay: on-bead whole cell binding assay, HCAECs; assay type: cell-based, human; conditions: 2 hours incubation
Text: Human coronary artery endothelial cells (HCAECs) were purchased from ATCC. Human cardiac microvascular endothelial cells (HMVECs) were purchased from Lonza. THP-1 monocytes were obtained from Dr. Pamela Lein (University of California, Davis). The myeloid leukemia K562 cells that have been transfected with human integrin αvβ3 gene (αvβ3-K562 cells) were provided by Dr. Yoshikazu Takada and the K562 cells transfected with human integrin αIIbβ3 gene (αIIb3-K562 cells) were provided Dr. Jennifer Cochran (Stanford University)
HECFCs, HCAECs, HMVECs and THP-1 monocytes were cultured in their respective growth medium as described in Example 1. For cell bead-binding assay, 6×10^5 HECFCs, HCAECs, HMVECs or THP-1 monocytes in 2 mL of their respective culture medium were added to an ultra-low attachment 35-mm petri dish (Corning Incorporated) followed by resin beads (Lam et al. (1991) Nature 354:82). The dishes were incubated in a shaking incubator at 37° C., 5% CO2 for various time points at 40 rpm. For platelet bead-binding assay, the platelets isolated as described in Example 1 were added to an ultra-low attachment 35-mm petri dish and incubated with the resin beads in the shaking incubator as described for the cell-bead binding assy. Phase contrast images were taken at different time points using an Olympus IX81 microscope.
Three integrin-targeting ligands—LXY30 (α3β1), LLP2A (α4β1) and LXW7 (αvβ3)—were tested for their binding activities to EPCs and ECs. […] LXY30 only bound to ECs, not to EPCs. LLP2A only bound to EPCs, not to ECs. LXW7 bound well to both EPCs and ECs.

Substance | attachment of HCAECs on ligand treated surface [1] | THP-1 monocyte attachment on ligand treated surface [2] | binding affinity to αvβ3-K562 cells by flow cytometry [3] | platelet adhesion on ligand treated surface [4] | binding affinity with platelets by flow cytometry [5] | binding to αIIbβ3-K562 cells by flow cytometry [6] | binding to THP-1 monocytes by flow cytometry [7] | binding of HECFCs to ligand-displaying resin beads [8] | binding of HCAECs to ligand-displaying resin beads [9]
GRGD [reference compound] | bound to both LXW7 and GRGD | did not support THP-1 monocyte attachment | bound well | significantly higher number of platelets to attach | strong binding to platelets | very strong binding | did not bind to THP-1 monocytes |  | 
LXY30: integrin-targeting ligand (α3β1), synthesized as in U.S. Pat. No. 9,073,974 (CDGFGPNCR; not fully specified; also: cyclised, D-residues and non-natural residues, places not given here) [reference compound] |  |  |  |  |  |  |  | not to HECFCs or to THP-1 monocytes | bound only to HCAECs
